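Grown in 96-well plates, cells were treated for 48 hours with each compound at five concentrations. Insufficient inhibition: endpoint recorded as highest concentration tested. TGI is the concentration that stops growth completely.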
Legend:
Test in all cases: NCI tumour cell line growth inhibition, 48 h
CAKI-1 renal = system: CAKI-1 renal
SF-268 CNS = system: SF-268 CNS
U251 CNS = system: U251 CNS
NCI-H226 lung = system: NCI-H226 lung
ACHN renal = system: ACHN renal
SF-295 CNS = system: SF-295 CNS
SF-539 CNS = system: SF-539 CNS
HT29 colon = system: HT29 colon
SR leukemia = system: SR leukemia
RPMI-8226 leukemia = system: RPMI-8226 leukemia
MALME-3M melanoma = system: MALME-3M melanoma
SNB-75 CNS = system: SNB-75 CNS
NCI-H460 lung = system: NCI-H460 lung
UO-31 renal = system: UO-31 renal
K-562 leukemia = system: K-562 leukemia
MOLT-4 leukemia = system: MOLT-4 leukemia
OVCAR-4 ovarian = system: OVCAR-4 ovarian
EKVX NSCLC = system: EKVX NSCLC
DU-145 prostate = system: DU-145 prostate
SK-MEL-5 melanoma = system: SK-MEL-5 melanoma
HL-60(TB) leukemia = system: HL-60(TB) leukemia
COLO 205 colon = system: COLO 205 colon
M14 melanoma = system: M14 melanoma
MDA-MB-231 breast = system: MDA-MB-231 breast
UACC-257 melanoma = system: UACC-257 melanoma
SK-MEL-28 melanoma = system: SK-MEL-28 melanoma
SK-MEL-2 melanoma = system: SK-MEL-2 melanoma
SW-620 colon = system: SW-620 colon
TK-10 renal = system: TK-10 renal
A549 NSCLC = system: A549 NSCLC
LOX IMVI melanoma = system: LOX IMVI melanoma
NCI-H23 lung = system: NCI-H23 lung
SK-OV-3 ovarian = system: SK-OV-3 ovarian
NCI/ADR-RES ovarian = system: NCI/ADR-RES ovarian
MCF7 breast = system: MCF7 breast
RXF 393 renal = system: RXF 393 renal
PC-3 prostate = system: PC-3 prostate
SNB-19 CNS = system: SNB-19 CNS
UACC-62 melanoma = system: UACC-62 melanoma
IGROV1 ovarian = system: IGROV1 ovarian
HCT-15 colon = system: HCT-15 colon
HS 578T breast = system: HS 578T breast
SN12C renal = system: SN12C renal
KM12 colon = system: KM12 colon
HOP-62 NSCLC = system: HOP-62 NSCLC
CCRF-CEM leukemia = system: CCRF-CEM leukemia
NCI-H522 lung = system: NCI-H522 lung
OVCAR-3 ovarian = system: OVCAR-3 ovarian
OVCAR-8 ovarian = system: OVCAR-8 ovarian
MDA-MB-435 = system: MDA-MB-435
OVCAR-5 ovarian = system: OVCAR-5 ovarian
HOP-92 NSCLC = system: HOP-92 NSCLC
MDA-N = system: MDA-N

Measured: TGI

CN(CC(=O)O)c1ncc2c(n1)-c1ccccc1OC2c1ccccc1 (stereo not drawn)
> 100 µM: all assays above

From PubChem BioAssay (NCI)
